Source: patent US4079139A, “Flavone derivatives” (priority 1974, dated 1978)
Read-outs that look alike come from different tables or passages of the source.

Columns and labels:
[1] = tested on: respiratory and cardiocirculatory activity; details: rabbit; for convulsive phenomena: in vivo, iv
[2] = tested on: toxicity of sodium Pentobarbital; test: "Life-saving" effect: influence on the toxicity of sodium Pentobarbital; details: for PR (ratio between the LD50 of Pentobarbital with and without pre-treatment with the stimulant): mouse, in vivo
[3] = Convulsivant effect on mouse; details: mouse, in vivo, po
mouse [4] = test: Convulsivant effect on mouse; details: for stimulant action on the CNS indicated by the ratio LD50/CD50: mouse, in vivo
Mouse [5] = details: cited from earlier work
[6] = tested on: respiratory depression induced by morphine; details: rabbit
[7] = Stimulating activity on the CNS (analeptic activity, ED50); type: in vivo
mouse [8] = details: in vivo
rat = test: Chronic toxicity in rat
Acute toxicity in mouse = details: mouse, in vivo
Mouse [9] = test: Acute toxicity in mouse; details: in words
Acute toxicity in rat = test: Acute toxicity in rat; parameters: species or system rats Sprague-Dauley; details: in vivo, read-out: LD50 and F.L.
Method: The test has been performed on Swiss mice of the weight of 20-22 g and on rats Sprague-Dauley of the weight of 120-130 g, subdivided in groups comprising 5 male and 5 female animals. The new drugs have been administered to animals hungry since 15-18 hours, both by oral and i.p.route. The LD50 values have been determined according to Litchfield and Wilcoxon (J.Pharmacol.96,99,1949). The results are reported in the following Table 1, in comparison with LD50 value for Dimefline.

[10] = rat, 5 and 10 mg/kg, 5 times/week over 12 weeks

For `COc1ccc2c(=O)c(C)c(-c3ccccc3)oc2c1CN(C)C` [Dimefline], the convulsive phenomena [1] was “several cases showing convulsive phenomena”, the “PR (ratio between the LD50 of Pentobarbital with and without pre-treatment with the stimulant)” value [2] was 1,27 and the TD50 [3] was 8.9 mg/kg. The “start of the convulsivant effect” value (mouse [4]; in comparison with PV1, in words) was “starts at by far lower doses”, the “stimulant action on the CNS indicated by the ratio LD50/CD50” value (mouse [4]) was “equivalent for the two drugs” and the “LD50 and F.L.” value (Mouse [5]; i.p., Setnikar, J.Pharmacol.128, 176, 1960) was 4.8 (4.6-5.0) mg/KG. The “LD50 and F.L.” value (Mouse [5]; in vivo, po) was 11.9 (10.3-13.8) mg/KG and the “LD50 and L.F.” value (Mouse [5]; in vivo) was 11,9 (10,3-13,8) mg/Kg.
For `COc1ccc2c(=O)c(-c3ccccc3)c(-c3ccc(C)cc3)oc2c1CN(C)C` [PV1], the “antagonism of the intermittent breath of Sheyne-Stoches” value ([6]; i.v. 1.25 mg/kg, after morphine 10 mg/kg) was “uneffective”, the “reinstatement of normal respiratory amplitude and frequency” value ([6]; i.v. 2.5 mg/kg, after morphine 10 mg/kg, repeated administration needed) was “effective to reinstate normal values of respiratory amplitude and frequency, but needed repeated administration” and the “reinstatement of normal respiratory amplitude and frequency” value ([6]; i.v. 5 mg/kg, after morphine 10 mg/kg, only one administration) was “quite effective”. The cardiocirculatory conditions ([6]; in vivo, iv) was “not remarkably affected”, the ED50 [7] was 5 mg/kg and the “respiratory amplitude and frequency” value ([1]; i.v. 1.25 - 2.5-5 mg/kg, without morphine) was “constantly reduced the gradual diminution of the respiratory amplitude and frequency”. For the same compound, the convulsive phenomena [1] was “no convulsive phenomenon was detected”, the “reduction of the toxicity of Pentobarbital” value ([2]; equi-toxic doses, vs Dimefline, in words) was “reduces the toxicity of Pentobarbital much more than Dimefline” and the “PR (ratio between the LD50 of Pentobarbital with and without pre-treatment with the stimulant)” value [2] was 1,39. For the same compound, the “R(LD50 /CD50)” value (mouse [8]) was 1,38, the HB (rat; 5 mg/Kg, 12 weeks) was 14,88 ± 0,36% and the Hemazies (rat; 5 mg/Kg, 12 weeks) was 7,38 ± 0,21 10^6 /mm^3. The Leucocytes (rat; 5 mg/Kg, 12 weeks) was 17,04 ± 1,36 10^3 /mm^3, the “Leucocytic formula: bas” value (rat; 5 mg/Kg, 12 weeks) was 0 and the “Leucocytic formula: eosin” value (rat; 5 mg/Kg, 12 weeks) was 0,9. For the same compound, the “Leucocytic formula: linf.” value (rat; 5 mg/Kg, 12 weeks) was 77,6, the “Leucocytic formula: monoc.” value (rat; 5 mg/Kg, 12 weeks) was 7,9 and the “Leucocytic formula: neutr.” value (rat; 5 mg/Kg, 12 weeks) was 13,6. For the same compound, the “analysis of urine: Hemoglobin” value (rat; 5 mg/kg) was 1(+), the “analysis of urine: Proteins” value (rat; 5 mg/kg) was 6(+) and the “analysis of urine: Residue” value (rat; 5 mg/kg) was “normal”. For the same compound, the “relative average weight: Brain” value (rat; 5 mg/kg) was 579,6 ± 24,5 mg/100 g of body weight, the “relative average weight: Heart” value (rat; 5 mg/kg) was 289,9 ± 11,2 mg/100 g of body weight and the “relative average weight: Liver” value (rat; 5 mg/kg) was 3012 mg/100 g of body weight. For the same compound, the “relative average weight: Loins” value (rat; 5 mg/kg) was 658,5 ± 26,4 mg/100 g of body weight, the “relative average weight: Spleen” value (rat; 5 mg/kg) was 304,2 ± 16,6 mg/100 g of body weight and the Azotemia (rat; 5 mg/kg, 12 weeks) was 15,7 ± 0,5 mg/100 ml. For the same compound, the Glycemia (rat; 5 mg/kg, 12 weeks) was 87,8 ± 3,9 mg/100 ml, the SGOT (rat; 5 mg/kg, 12 weeks) was 12,9 ± 0,8 mU/ml and the SGPT (rat; 5 mg/kg, 12 weeks) was 12,1 ± 0,6 mU/ml. The HB (rat; 10 mg/Kg, 12 weeks) was 15,02 ± 0,42%, the Hemazies (rat; 10 mg/Kg, 12 weeks) was 7,40 ± 0,20 10^6 /mm^3 and the Leucocytes (rat; 10 mg/Kg, 12 weeks) was 16,70 ± 1,70 10^3 /mm^3. The “Leucocytic formula: bas” value (rat; 10 mg/Kg, 12 weeks) was 0, the “Leucocytic formula: eosin” value (rat; 10 mg/Kg, 12 weeks) was 0,7 and the “Leucocytic formula: linf.” value (rat; 10 mg/Kg, 12 weeks) was 77,8. The “Leucocytic formula: monoc.” value (rat; 10 mg/Kg, 12 weeks) was 9,4, the “Leucocytic formula: neutr.” value (rat; 10 mg/Kg, 12 weeks) was 12,1 and the “analysis of urine: Hemoglobin” value (rat; 10 mg/kg) was 2(+). For the same compound, the “analysis of urine: Residue” value (rat; 10 mg/kg) was “normal”, the “relative average weight: Brain” value (rat; 10 mg/kg) was 583,7 ± 19,8 mg/100 g of body weight and the “relative average weight: Heart” value (rat; 10 mg/kg) was 288,8 ± 11,3 mg/100 g of body weight. The “relative average weight: Liver” value (rat; 10 mg/kg) was 3036,5 mg/100 g of body weight, the “relative average weight: Loins” value (rat; 10 mg/kg) was 672,8 ± 29,6 mg/100 g of body weight and the “relative average weight: Spleen” value (rat; 10 mg/kg) was 303,7 ± 13,5 mg/100 g of body weight. For the same compound, the Azotemia (rat; 10 mg/kg, 12 weeks) was 32,5 ± 1,6 mg/100 ml, the Glycemia (rat; 10 mg/kg, 12 weeks) was 80,3 ± 4,1 mg/100 ml and the SGOT (rat; 10 mg/kg, 12 weeks) was 12,3 ± 0,5 mU/ml. For the same compound, the SGPT (rat; 10 mg/kg, 12 weeks) was 10,4 ± 0,7 mU/ml, the deaths (rat; [10]) was “No death has been registered” and the “increase in the weight of the treated animals” value (rat; [10]) was “identical to that of the controls”. For the same compound, the “intolerance of the drug” value (rat; [10]) was “No intolerance of the drug has been noted”, the autopsy (rat; rat, 5 and 10 mg/kg, 12 weeks) was “no lesion of the different organs” and the “hematologic and hematochemical tests” value (rat; rat, 5 and 10 mg/kg, 12 weeks, vs controls, in words) was “do not show significant difference between controls and treated animals”. For the same compound, the LD50 (Acute toxicity in mouse) was 80 mg/kg, the LD50 (Acute toxicity in mouse; ip) was 28.2 mg/kg and the LD50 (Acute toxicity in mouse; po) was 80 mg/kg. For the same compound, the “acute toxicity compared with Dimefline” value (Mouse [9]) was “by far less toxic than Dimefline”, the TD50 [3] was 58 mg/kg and the “stimulant action on the CNS indicated by the ratio LD50/CD50” value (mouse [4]) was “equivalent for the two drugs”. It also gave an LD50 (Acute toxicity in rat; ip) of 22.5 mg/kg and an LD50 (Acute toxicity in rat; po, os) of 76.4 mg/kg.
